Assays:
[1] = system: BJ RiPS MPC derived adipocytes; experiment: Glucose uptake assay ([3H]-2-deoxy-D-glucose); format: cell-based, human; settings: 100 nM insulin 30 min; P=0.05 unprogrammed, P=0.0007 PPARG2-programmed cells
Experimental: Glucose uptake assay. Adipocytes were serum-starved in 0.2% BSA DMEM overnight. Then, cells were incubated in KRH buffer (121 mM NaCl, 4.9 mM KCl, 1.2 mM MgSO4, 0.33 mM CaCl2, 12 mM HEPES, pH7.4) in the absence or presence of 100 nM insulin for 30 min at 37° C., followed by washing three times in KRH buffer. Glucose uptake was measured by incubating cells with 0.5 μCi/ml 2-deoxy-D-[3H] glucose (Perkin-Elmer) for 5 min at 37° C. After cold PBS washing three times, cells were lysed with 1% Triton X-100 solution and subjected to scintillation counting. Non-specific uptake was measured in the presence of 10 μM of cytochalasin B and subtracted from total uptake.

pAKT(S473) = experiment: Western blot of insulin-induced AKT phosphorylation; format: cell-based, human; settings: programmed white adipocytes, vs basal starved state
Experimental: Finally, it was determined whether the programmed white adipocytes respond to insulin in a manner similar to mature primary white adipocytes. […] Insulin response was examined by assessing protein expression levels of AKT and phosphorylated AKT [pAKT(S473)] (FIG. 4D).
Western blot analysis. Western blot analysis was carried out using following antibodies: total AKT (Cell signaling #9272), phospho-Ser 473 AKT (Cell signaling #9271), Lamin A/C (Fisher/Millipore #3211).

hPSC-derived adipocytes [2] = experiment: Cellular OCR and ECAR (extracellular flux analyzer); format: cell-based, human; settings: all cell types; 5 μM antimycin A after oligomycin and CCCP
Experimental: To further distinguish between white and brown adipocytes at a functional level, the characterization was extended to the mitochondrial function of our cells. […] Compounds were then injected that modulate mitochondrial function sequentially and the effect on OCR and ECAR was measured after the addition of each compound. Oligomycin was first administered to determine ATP turnover and the degree of proton leak. […] After the addition of the electron transport chain decoupler carbonyl cyanide m-chlorophenylhydrazone (CCCP), the maximal respiratory capacity was measured. […] Finally, antimycin was administered to inhibit the flux of electrons through complex III and prevent oxygen consumption by the cytochrome c oxidase in the mitochondria.
Measurement of cellular OCR and ECAR. Cells were plated in gelatin-coated XF24-well cell culture microplates (Seahorse Bioscience) and differentiated into adipocytes. Cells were incubated in prewarmed unbuffered DMEM medium (DMEM containing 2 mM GlutaMax, 1 mM sodium pyruvate, 1.85 g/l NaCl, and 25 mM glucose) for 1 hour. The oxygen consumption was measured by the XF24 Extracellular Flux Analyzer (Seahorse Biosciences). […] OCR and ECAR were determined by plotting the oxygen tension and acidification of the medium in the chamber as a function of time and normalized by protein concentration (pmol/min/mg and mpH/min/mg), respectively.

hPSC-derived adipocytes [3] = experiment: Lipolysis assay (glycerol release); settings: PPARG2-programmed, differentiated ADSVCs and MPCs; ADSVCs P=0.01, MPCs P=0.002; n=3
Experimental: Lipolysis assay. […] The culture media was collected for glycerol measurement using the Free Glycerol reagent (Sigma #F6428). Protein concentrations used to normalize glycerol content were measured using the Bradford protein assay (BioRad). Glycerol release was expressed in μg glycerol per mg total protein or the lowest value is set to 1.

insulin: insulin (Sigma)
glucose uptake after exposure to insulin [1]: significant increase in the glucose uptake | pAKT(S473) after insulin (pAKT(S473)): robustly upregulated pAKT(S473)

antimycin
OCR after antimycin (hPSC-derived adipocytes [2]): dropped to post-oligomycin levels

CC(C)NCC(O)c1ccc(O)c(O)c1 (stereo not shown) [isoproterenol]
release of glycerol after isoproterenol (hPSC-derived adipocytes [3]): breakdown of triglycerides and release of glycerol

Source: patent US20150004144A1, “DIFFERENTIATION INTO BROWN ADIPOCYTES” (THE GENERAL HOSPITAL CORPORATION, priority 2011, published 2015)
